Reference: patent publication US20150125904A1, “PROBE INCORPORATION MEDIATED BY ENZYMES” (Massachusetts Institute of Technology, priority 2012, published 2015)
Where two headings read alike, the source gives them in different places. Values belong to the compound of their own block, whether it stands above or below them.

Experiments:
[1] = biological target: T1, WTLplA / LAP-YFP in HEK cells (Escherichia coli, UniProt P32099); experiment: Azide ligation yield in cells (native gel shift of LAP-YFP), wild-type LplA; type: cell-based, E. coli
T1 construct: expressed in transfected cells; host or cells: HEK cells
Experimental: (§1) For azide 7 ligation, cells were transfected with 50 ng WTLplA and 1000 ng pcDNA3-LAP-YFP. For azide 9 ligation, cells were transfected with 500 ng W37ILplA and either 1000 ng pcDNA3-LAP-YFP or pcDNA3-LAP(K⋄A)-YFP using Lipofectamine 2000 (Life Technologies). The LplA:LAP plasmid ratios are identical to the conditions used for imaging. 18 hr after transfection, cells were incubated in growth media (MEM supplemented with 10% FBS) containing 200 μM azide 7 or azide 9 for 30 min or 1 hr at 37° C. Excess azide probe was washed out over 1 hr. […] Cells were then centrifuged at 13,000 rpm for 2 min, and the supernatant was analyzed on a 12% polyacrylamide native gel without SDS (5 μL lysate per lane) at constant 200 V. Prior to Coomassie staining, in-gel fluorescence of YFP was visualized on a FUJIFILM FLA-9000 instrument using LD473 laser and Long Pass Blue (LPB) filter. […]
(§2) We also used a gel shift assay as a separate readout of azide ligation yield inside cells. […] The yield of azide ligation to LAP-YFP was determined by shift on a native polyacrylamide gel. The unmodified fusion protein, visualized by YFP fluorescence, runs at an apparent molecular weight of ˜42 kD. […]

Trp37→Ile LplA = Trp37→Ile LplA (Escherichia coli, UniProt P32099, W38I); conditions: 30 min reaction, 500 μM probe; normalized to TCO2/Trp37→Val
Experimental: LplA protein was purified as previously described2 and stored at −80° C. in 20 mM Tris-HCl, pH 7.5 supplementated with 10% v/v glycerol. Reactions were quenched with 30 mM EDTA (final concentration) and resolved by HPLC (Varian ProStar) on a C-18 column using a linear gradient of 25-60% acetonitrile in H2O (with 0.1% v/v trifluoroacetic acid) over 14 minutes. Species were detected at 210 nm absorbance. Peaks corresponding to LAP and its trans-cyclooctene adducts were confirmed by ESI mass spectrometry. The extent of conversion was calculated from ratios of peak areas, neglecting minor extinction coefficient changes to LAP due to trans-cyclooctene ligation.
The relative abilities of wild-type and mutant ligases to ligate TCO1-3 onto LplA acceptor peptide (LAP) were measured by an HPLC assay after 30 min. reaction time. […] Errors, ±1 s. d.

W37VLplA = W37VLplA (Escherichia coli, UniProt P32099, W38V); conditions: 500 μM probe, 500 μM LAP, 30° C.
Experimental: After 5, 10, 15 and 20 minutes, an aliquot was drawn from the reaction vial, quenched with 30 mM EDTA (final concentration) and the product quantified by HPLC as in Table 3. The plot of product concentration against time was fitted to a linear line whose slope corresponds to the initial velocity. The value of kcat was calculated from the Michaelis-Menten equation Vmax=(kcat)([Enzyme]) at substrate-saturating conditions. Measurements were performed in triplicate.

W37ILplA [2] = biological target: T2, W37ILplA (Escherichia coli, UniProt P32099, W38I); experiment: In vitro screening for Ald and Hyd ligation activity (HPLC); type: biochemical, E. coli; conditions: 1 μM W37ILplA, 500 μM probe
T2 construct: His6 (N); made in house; host or cells: E. coli
Experimental: Ligation reactions were assembled as follows: 1 μM of purified LplA mutant (Uttamapinant, et al., 2010), 150 μM synthetic LAP2 peptide ([…]; SEQ ID NO:4), 5 mM ATP, 500 μM of either Ald or Hyd probe, 5 mM magnesium acetate, and 25 mM Na2HPO4 pH 7.2 in a total volume of 20 μL. Reactions were incubated for 5 to 60 min at 30° C. and then quenched with EDTA to a final concentration of 45 mM. Samples were diluted to a total volume of 80 μL in conjugation buffer (10 mM Na2HPO4, 3.2 mM KH2PO4, 2.7 mM KCl, 140 mM NaCl, pH 5.0) and analyzed on a Varian Prostar HPLC using a reverse-phase C18 Microsorb-MV 100 column (250×4.6 mm). Chromatograms were recorded at 210 nm. For analysis of the aldehyde ligation reaction we used a 10-minute gradient of 30-60% acetonitrile in water with 0.1% trifluoroacetic acid under 1 mL/minute flow rate. For analysis of the hydrazine ligation reaction a gradient of 25-60% over 14 minutes with the same solvents was used. Percent conversions were calculated by dividing the product peak area by the sum of (product+starting material) peak areas. Reactions were performed in triplicate (Ald) or duplicate (Hyd) and the average values are shown. Reactions in FIG. 27C were performed using the conditions above with a 70 minute reaction time for Ald and 120 minute reaction time for Hyd.

W37ILplA [3] = biological target: T2, W37ILplA; experiment: Measurement of kcat values for Ald and Hyd ligation; type: biochemical, E. coli; conditions: for Vmax / kcat: 1 μM W37ILplA, 600 μM LAP, 500 μM probe
Experimental: Values of kcat for W37ILplA ligation of the Ald and Hyd probes onto LAP peptide were determined by measuring the initial reaction rates by HPLC. The conditions used were as follows: 1 μM W37ILplA, 600 μM LAP, 500 μM of Ald or Hyd, 2 mM magnesium acetate, and 25 mM sodium phosphate buffer, pH 7.2. Each initial rate was measured in triplicate and the average value reported. The error shown represents ±1 s.d. The equation kcat=Vmax/[E] was used to determine the kcat value.

W37ILplA [4] = biological target: T2, W37ILplA; type: biochemical, E. coli
Experimental: Reactions were quenched with 40 mM EDTA (ethylenediaminetetraacetic acid, final concentration). Percent conversion to LAP-azide adduct was determined by HPLC with a C18 reverse phase column, recording absorbance at 210 nm. Elution conditions were 30-60% acetonitrile in water with 0.1% trifluoroacetic acid over 20 minutes at 1.0 mL/min flow rate. The percent conversion was calculated from the ratio of LAP-azide to sum of (unmodified LAP+LAP-azide). Reactions containing 1 μM LplA enzyme, 500 μM azide 9, and 300 μM LAP peptide were incubated at 30° C. for 2 hours. To determine kinetic measurements, reactions containing 100 nM W37ILplA, 25-700 μM azide 9, and 600 μM LAP peptide were incubated at 30° C., before quenching at various time points with EDTA.
Reactions were set up as described in the main text. Aliquots were taken and quenched before product conversion exceeded 5%. To calculate initial rates, we determined the amount of product at each time point by generating a calibration curve using purified LAP and LAP-azide 9 mixed at different ratios. This curve correlated the measured ratio of integrated HPLC peak areas to the actual ratio, i.e. adjusted for any differences in extinction coefficient of LAP vs. LAP-azide 9. Initial rates (Vo) were determined at each azide 9 concentration, by plotting the amount of LAP-azide 9 product against time. The slope of the line gives Vo. Vo values were then plotted against azide 9 concentration in FIG. S3C, and Origin 8.5.1 was used to fit the curve to the Michaelis-Menten equation Vo=Vmax[azide 9]/(Km+[azide 9]). From the Vmax, kcat was calculated using Vmax=kcat[E]total. Measurements of Vo values at each azide 9 concentration were performed in triplicate.

[5] = biological target: T3, W37ILplA / LAP-YFP in HEK cells (Escherichia coli, UniProt P32099, W38I); experiment: Azide ligation yield in cells (native gel shift of LAP-YFP), W37ILplA; type: cell-based, E. coli
T3 construct: expressed in transfected cells; host or cells: HEK cells
Experimental: as §1, §2

[6] = tested on: LAP-LDL receptor on HEK cells; experiment: Live cell surface fluorogenic labeling without dye washout; type: cell-based, human; conditions: 50 nM, without rinsing
Experimental: After 5 rinses with Tyrode's buffer, the chamber was placed on the microscope objective covered with 200 μL of the same buffer. Image acquisition sequence was initiated immediately after 200 μL of 100 nM Tz1-fluorescein in Tyrode's buffer was added to the chamber, and briefly mixed by pipeting. Final concentration of Tz1-fluorescein was therefore 50 nM after mixing. LAP-LDL receptor and a mCherry fluorescent protein transfection marker were transfected at a 1:1 ratio, with altogether 400 ng plasmid per 1 cm^2 culture.
To quantify the imaging signal/noise ratio, 17 cells with obvious surface fluorescence (by eye) at the 180 sec. time point were chosen and separate masks created automatically by the Slidebook software over the fluorescent rims. The averaged pixel intensity was defined as “signal”. To measure noise, 10 cells with no obvious surface fluorescence (by eye) at the 180 sec. time point were chosen, and rectangular masks created manually over the interiors of these cells. The averaged (over all 10 masks) pixel intensity was defined as “noise”.

[7] = Tetrazine-dye fluorescence turn-on after Diels-Alder cycloaddition; type: physicochemical; conditions: DPBS pH 7.4, >100-fold excess TCO1
Experimental: Tetrazine-fluorophore conjugates were dissolved in Dulbecco's phosphate buffered saline, pH 7.4 at approximately 100 nM concentration. Solutions with >100-fold excess TCO1 in DMSO or DMSO vehicle alone added were transferred into an opaque, flat-bottom 96-well plate (Greiner Bio One) and their fluorescence emission scanned with a Safire Tecan fluorescence microplate reader. Excitation was fixed at 430 nm for fluorescein, 530 nm for TMR, and 610 nm for Alexa 647. Fold-changes in fluorescence turn-on are reported at respective fluorescence emission maximum wavelengths.

[8] = In vitro second-order Diels-Alder cycloaddition rate constant; conditions: DPBS, pseudo-first-order approximation
Experimental: Ligation reaction was allowed to proceed at 30° C. for 4 hours to maximize ligation yield. The mixture was then resolved by preparatory HPLC on a C-18 column (25-45% acetonitrile over 30 min. linear gradient, supplemented with 0.1% v/v trifluoroacetic acid), where the product eluted at 19 min. and its identity confirmed by ESI mass spectrometry. The eluate was freeze-dried into a white powder and dissolved in DPBS for subsequent measurements.
To measure second-order rate constant by pseudo-first-order approximation, 100 μL Tz1- or Tz2-fluorescein (100 nM in DPBS) was loaded into an opaque, flat-bottom 96-well plate (Greiner Bio One), then mixed with 100 μL LAP-TCO2 (3.3 μM in DPBS). The fluorescence intensity at 520 nm was immediately recorded at 9-second intervals until the reaction reached completion in approximately 5 minutes. The fluorescence intensity was then converted to [tetrazine-fluorescein], assuming that initial fluorescence corresponded to 50 nM and final fluorescence corresponded to 0 nM tetrazine-fluorescein. […] Measurements were performed in triplicate.

[9] = 100 nM W37ILplA, 600 μM LAP, 30° C.

T2 sequence (P32099 2-338 W38I): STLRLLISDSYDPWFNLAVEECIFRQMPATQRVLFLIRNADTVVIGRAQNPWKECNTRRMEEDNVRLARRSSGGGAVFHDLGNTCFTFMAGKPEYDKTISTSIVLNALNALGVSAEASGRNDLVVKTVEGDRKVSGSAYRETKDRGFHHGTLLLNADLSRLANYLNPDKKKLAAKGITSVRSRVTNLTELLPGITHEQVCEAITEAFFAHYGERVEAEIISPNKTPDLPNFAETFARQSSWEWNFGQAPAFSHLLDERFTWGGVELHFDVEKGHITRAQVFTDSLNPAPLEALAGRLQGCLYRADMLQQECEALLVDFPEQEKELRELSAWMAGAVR
T3 sequence (P32099 2-338 W38I): as above
T1 sequence (P32099 2-338): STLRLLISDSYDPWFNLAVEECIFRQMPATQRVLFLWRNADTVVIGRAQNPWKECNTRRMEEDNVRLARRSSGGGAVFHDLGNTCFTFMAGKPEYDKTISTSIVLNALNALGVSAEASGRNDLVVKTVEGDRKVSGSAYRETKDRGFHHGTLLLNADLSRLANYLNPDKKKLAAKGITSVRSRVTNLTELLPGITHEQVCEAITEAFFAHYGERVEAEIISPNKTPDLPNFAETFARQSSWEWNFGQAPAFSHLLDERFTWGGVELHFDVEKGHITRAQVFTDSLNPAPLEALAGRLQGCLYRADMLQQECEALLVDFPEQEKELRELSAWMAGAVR
Chain of W37VLplA (P32099 2-338 W38V): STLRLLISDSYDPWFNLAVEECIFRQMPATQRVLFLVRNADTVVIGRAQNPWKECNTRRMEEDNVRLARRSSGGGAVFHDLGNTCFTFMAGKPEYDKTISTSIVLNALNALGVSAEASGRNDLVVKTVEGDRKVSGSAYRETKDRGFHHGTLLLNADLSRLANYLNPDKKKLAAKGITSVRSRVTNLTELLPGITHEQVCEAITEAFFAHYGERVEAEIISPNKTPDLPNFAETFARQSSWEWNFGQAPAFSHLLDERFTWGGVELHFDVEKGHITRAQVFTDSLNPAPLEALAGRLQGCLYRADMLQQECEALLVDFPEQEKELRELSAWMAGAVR
Chain of Trp37→Ile LplA (P32099 2-338 W38I): as the sequence (P32099 2-338 W38I) above

Compound: 2-Azidomethyl-4-chloropyridine [Azide 7]
ligation yield in cells, repeat of the experiment ([1]; 50 ng WTLplA plasmid): 67%
ligation yield in cells ([1]; 200 μM azide, 1 hour labeling, densitometry): 73%

Compound: O=C(O)CCCNC(=O)O[C@H]1CC/C=C/CCC1 (stereo in doubt) [TCO1, rel-(1R-4E-pR)-cyclooct-4-ene-1-yl-N-butyric acid carbamate]
Ligation efficiency (average, normalized product percentage), Trp37→Ile (Trp37→Ile LplA): 0.5 ± 0.4%

Compound: O=C(O)CCCCNC(=O)O[C@H]1CC/C=C/CCC1 (stereo in doubt) [TCO2, rel-(1R-4E-pR)-cyclooct-4-ene-1-yl-N-pentanoic acid carbamate]
Michaelis-Menten kcat of ligation onto LAP (W37VLplA): 0.34 ± 0.02 s⁻¹

Compound: O=Cc1ccc(C(=O)NCCCCC(=O)O)cc1 [Ald]
reaction completion (W37ILplA [2]; 150 μM LAP peptide, 5 minutes): 62%
activity of Ald versus Hyd (W37ILplA [3]): ten-fold greater activity
Vmax (W37ILplA [3]): 19.7 ± 0.7 µM/min
kcat (W37ILplA [3]): 0.33 ± 0.01 s⁻¹

Compound: NNc1ccc(C(=O)NCCCCC(=O)O)cn1 [Hyd]
reaction completion (W37ILplA [2]; 60 min): 50%
Vmax (W37ILplA [3]): 1.25 ± 0.16 µM/min
kcat (W37ILplA [3]): 0.021 ± 0.003 s⁻¹

Compound: [N-]=[N+]=NCCCCCCCCCC(=O)O [azide 9, 10-azidodecanoic acid]
Km lower than azide 7 ligation catalyzed by wild-type LplA (W37ILplA [4]): 4 fold
improvement in kcat/Km over azide 7 ligation catalyzed by wild-type LplA (W37ILplA [4]): 2 fold
kcat reduced compared to azide 7 ligation catalyzed by wild-type LplA (W37ILplA [4]): 1.8 fold
Km (W37ILplA [4]; [9]): 35 µM
kcat (W37ILplA [4]; [9]): 0.0603 s⁻¹
ligation yield in cells, repeat of the experiment ([5]; 500 ng W37ILplA plasmid): 89%
ligation yield in cells ([5]; 200 μM azide, 30 minutes incubation): nearly quantitative

increase in fluorescein emission upon reaction with excess trans-cyclooctene [7]: 13.4 fold
Compound: Aminobenzyltetrazine carboxyfluorescein [Tz1-fluorescein]
time to saturation of signal-to-noise ratio [6]: approximately 3 minutes
second order rate constant for reaction with TCO2-ligated LAP [8]: 5000 ± 700 M⁻¹ s⁻¹
